Reference: patent US8258099B2, “Pin1-modulating compounds and methods of use thereof” (Max-Planck-Gesellschaft zur Foerderung der Wissenschaften …, priority 2004, dated 2012)
pIC50: −log10 of the molar value. Where two headings read alike, the source gives them in different places. Square brackets hold non-standard residues; d marks the D form. Peptide text beside a SMILES is read from it. * marks the point of attachment. Biotin = O=C1N[C@H]2[C@H](CS[C@H]2CCCCC(=O)*)N1; pT = C[C@@H](OP(=O)(O)O)[C@H](N)C(=O)O; 2Nal = N[C@@H](Cc1ccc2ccccc2c1)C(=O)O; Bta = N[C@@H](Cc1csc2ccccc12)C(=O)O; Pip = O=C(O)[C@@H]1CCCCN1

Assays:
hPin1 = biological target: T1, hPin1 (Homo sapiens, UniProt Q13526); test: Protease free PPIase assay, hPin1; format: biochemical
T1 construct: The protease free assay ensures reliable measurement of IC50 values for the full-length hPin1
Description: Protein concentrations were determined using the extinction coefficient ε280=21030 M^−1 cm^−1 for hPin1, ε280=6979 M^−1 cm^−1 for the hPin1 PPIase domain, ε280=21030 M^−1 cm^−1 for XlPin1, ε280=8250 M^−1 cm^−1 for hPar14 and ε280=8250 M^−1 cm^−1 for hCyp18. Extinction coefficients were calculated using the program ProtParam Tool at ExPASy (SIB, Switzerland). All measurements were done at 10° C. in 35 mM Hepes buffer (pH 7.8).
The determination of the kinetic constants of the cis/trans isomerization within the protease-free system was performed using fluorescence based measurements (Garcia-Echeverria et al., 1993, Zhang et al., 2002) on a Hitachi F-3010 fluorescence spectrophotometer with H-Abz-Ala-Glu-Pro-Phe-NH-Np (SEQ ID NO: 2) as substrate. The substrate stock solution was 12 mM in anhydrous trifluoroethanol/0.55 M LiCl. Measurements were initiated by addition of the substrate (final concentration 10 μM) to a pre-incubated (15 min) mixture of 8.8 nM hPin1 or 7.1 nM XlPin1 and respective inhibitory peptide of desired concentrations. The excitation wavelength was 320 nm (spectral bandwidth 3 nm) and emission was detected at 420 nm (spectral bandwidth 10 nm).
Data analysis was performed by single-exponential nonlinear regression using the SigmaPlot Scientific Graphing System Version 5.00 (Jandel Corp.). The apparent first order rate constant kobs was computed by nonlinear regression of the progress curve obtained for the respective measurement. The rate constant k0 was determined in the absence of Pin1. The first order rate constants kenz was calculated from the equation kenz=kobs−k0. IC50 and Ki values were determined by fitting the first order rate constants kenz against the concentration of the inhibitory peptide by nonlinear regression according to Schutkowski et al., 1995 or a model for tight binding inhibitors (Morrison, 1969).
The protease free assay ensures reliable measurement of IC50 values for the full-length hPin1.

[1] = Stability against cellular phosphatases and proteases in HeLa cell lysate; format: in vitro ADME; conditions: cytoplasmic extracts from HeLa cells, prolonged incubation, MALDI-TOF
Description: FIG. 4 depicts the stability of peptide 17 against cellular phosphatases and proteases. Peptide 17 was incubated for 3 hours in HeLa cell lysate in the absence of phosphatase and protease inhibitors. The mixture was then analyzed by capillary electrophoresis (short dashed line). As controls, the untreated peptide 17 (solid line) and its nonphosphorylated derivative (dotted line) were used. The temperature of the capillary thermostating system was kept at 16° C. Separation buffer was 50 mM sodium phosphate, pH 7.0. Signals were detected at 220 nm.
Peptide 17 was incubated with HeLa cell lysate for 3 h and analyzed with capillary electrophoresis using UV detection at 220 nm on a P/ACE MDQ (Beckman Coulter, Palo Alto, Calif.) system. Fused-silica capillaries (Polymicro Technologies) of 40 cm length at an operation voltage of 20 kV were used. As references, untreated peptide 17 and its nonphosphorylated derivative were used. The samples were hydrodynamically injected with 3.45 kPa for 10 s. 50 mM sodium phosphate buffer (pH 7.0) was used as separation buffer. The system temperature was kept at 16° C.
The stability of peptides 15 and 17 in cytoplasmic extracts from HeLa cells was investigated using MALDI-TOF mass spectrometry and capillary electrophoresis, respectively. In the cytosolic incubation mixture, streptavidin sepharose beads served to isolate peptide 15 fragments after prolonged incubation. […] Therefore, phosphopeptides are useless for evaluating Pin1 functions in vivo unless dephosphorylation can be avoided.

[2] = biological target: T2, GST-hPin1 variant Ser16Glu (Homo sapiens, UniProt Q13526, S16E); test: Far western blot related analysis, GST-hPin1 variants; format: binding
T2 construct: made in house
Description: FIGS. 2A-B depict western blot experiments analyzing the binding of peptide 15 to Pin1. FIG. 2A depicts the binding preferences of the PPIase and WW domain of hPin1 regarding peptide 15. In far western blot related experiments, increasing amounts (from left to right: 1, 5, 10, 52.5, 105 pmol) of GST, GST-hPin1 or its single GST-hPin1 PPIase and GST-hPin1 WW domain were spotted onto nitrocellulose membranes followed by a blocking procedure. The membranes were then incubated with a 1 μM solution of peptide 15 or 50 μM solution of its nonphosphorylated derivative (control). Signals were detected after incubation of the nitrocellulose membranes with horseradish peroxidase-conjugated streptavidin followed by a chemiluminescent reaction using the SuperSignal® substrate. FIG. 2B depicts an analysis of the binding of peptide 15 towards different GST-hPin1 variants. The indicated amounts of peptide 15 were spotted onto nitrocellulose membranes followed by a blocking procedure and incubation with the respective GST-hPin1 variant. […] Residual PPIase activities of GST-hPin1 and its variants were determined according to Zhou et al., 2000 and/or Yaffe et al., 1997. The PPIase activity of the GST-hPin1 variant Ser16Glu was measured in the protease free PPIase assay. […]

[3] = biological target: T3, GST-hPin1, GST-hPin1 PPIase and GST-hPin1 WW domain (Homo sapiens, UniProt Q13526); test: Far western blot related analysis, hPin1 and its single domains; format: binding; conditions: 1 μM peptide 15, 50 μM nonphosphorylated derivative
T3 construct: made in house
Description: FIGS. 2A-B depict western blot experiments analyzing the binding of peptide 15 to Pin1. FIG. 2A depicts the binding preferences of the PPIase and WW domain of hPin1 regarding peptide 15. In far western blot related experiments, increasing amounts (from left to right: 1, 5, 10, 52.5, 105 pmol) of GST, GST-hPin1 or its single GST-hPin1 PPIase and GST-hPin1 WW domain were spotted onto nitrocellulose membranes followed by a blocking procedure. The membranes were then incubated with a 1 μM solution of peptide 15 or 50 μM solution of its nonphosphorylated derivative (control). Signals were detected after incubation of the nitrocellulose membranes with horseradish peroxidase-conjugated streptavidin followed by a chemiluminescent reaction using the SuperSignal® substrate. FIG. 2B depicts an analysis of the binding of peptide 15 towards different GST-hPin1 variants. […] Residual PPIase activities of GST-hPin1 and its variants were determined according to Zhou et al., 2000 and/or Yaffe et al., 1997. The PPIase activity of the GST-hPin1 variant Ser16Glu was measured in the protease free PPIase assay.
GST-hPin1 variants, GST-hPin1 PPIase and GST-hPin1 WW domain were prepared as described previously (Ranganathan et al., 1997, Zhou et al., 2000). […] Specific bound peptide 15 was detected by a chemiluminescent reaction using the SuperSignal® substrate (Pierce).

pIC50 (hPin1; blockade of PPIase activity of full-length hPin1, protease free assay, 10° C., read-out: IC50): 6.68
pIC50 (hPin1; protease free assay, full-length hPin1, read-out: lowest IC50 value): ~6.70
phosphothreonine residue in cytosol [1]: completely dephosphorylated
sequence integrity in cytosol [1]: sequence integrity was maintained
effect of Ser16Glu substitution in hPin1 on affinity [2]: virtually no effect
binding to GST-hPin1 and its PPIase and WW domains [3]: binds only to the PPIase domain
Structure (SMILES): CC(=O)N[C@@H](CCCCNC(=O)CCCC[C@@H]1SC[C@@H]2NC(=O)N[C@@H]21)C(=O)N[C@@H](C)C(=O)N[C@@H](C)C(=O)N[C@@H](Cc1csc2ccccc12)C(=O)N[C@H](C(=O)N1CCCC[C@H]1C(=O)N[C@@H](Cc1ccc2ccccc2c1)C(=O)N[C@@H](CCC(N)=O)C(N)=O)[C@@H](C)OP(=O)(O)O [Peptide 15, Ac-Lys(N^ε-biotinoyl)-Ala-Ala-Bth-Thr(PO3H2)Pip-Nal-Gln-NH2] (Ac-K(Biotin)AA[Bta][pT][Pip][2Nal]Q-NH2)
